The structures appear in SMILES notation.

We go through 2 compounds from patent US8031338B2, “Measuring Forster resonance energy transfer with polarized and depolarized light” (Vanderbilt University, priority 2004, dated 2011).

Assay [1] relates to COS-7 cells expressing SCAT3.1 (caspase-3 cleavage site). The experiment in a line: A-FRET microscopy of SCAT 3.1 apoptosis sensor cleavage in live cells. Particulars: COS-7 cells transfected with SCAT 3.1; imaged immediately after treatment and after 5 hours; FIG. 6A-C. The assay is classed as cell-based. The protocol: Sample Preparation. Beads from a 5 ml HiTRAP chelating HP column (Amersham Biosciences) were charged using a 0.1M NiSO (Rizzo and Piston, 2005) solution and washed with 50 mM TrisHCl. The beads were then labeled as described (Youvan et al., 1997) with purified mCerulean, mVenus, or a linker protein containing mVenus and mCerulean separated by the linker sequence […]. Histadine-tagged recombinant protein was bacterially expressed and purified as previously described (Rizzo et al., 2004). For living cell studies, plasmid DNA encoding FP constructs were introduced was into COS-7 cells using FUGENE (Roche) transfection reagent according to the manufacturer's instructions. […]
Fluorescence Imaging. […] Fluorescence emission was filtered through a 515-540 nm bandpass filter and 2 mm BGG22 glass prior to separation vertical and horizontal polarizations with a broadband polarizing cube beam splitter (Newport). […]
To test the ability of this approach to measure FRET changes in a live cell based assay, COS-7 cells were transfected with the apoptosis sensor, SCAT 3.1 (Nagai and Miyawaki, 2004), which consists of cyan and yellow FPs separated by a caspase-3 cleavage site (FIG. 6A). […] SCAT 3.1 cleavage was also monitored in cells grown on a 96-well plate. […] The use of an intrinsic parameter, such as anisotropy, enables absolute threshold values to be determined for occurrence of FRET during an assay. […]

The test system is the same in assay [2]. The following applies: COS-7 cells expressing SCAT3.1, 96-well plate; 10 μM H2O2 for 90 min; FIG. 6D.

Consider `CN[C@@H]1C[C@H]2O[C@@](C)([C@@H]1OC)n1c3ccccc3c3c4c(c5c6ccccc6n2c5c31)C(=O)NC4` [staurosporine], for which the “emission in the yellow FP channel (polarization) following induction of apoptosis” value in assay [1] was “changes from highly depolarized fluorescence to highly polarized fluorescence”.
Turning to `OO` [hydrogen peroxide], the “overall anisotropy in the yellow emission channel, indicating caspase-3 activation” value in assay [2] is listed as “increase in the overall anisotropy”.
